These results are taken from patent US5166379A, “Synthesis of compounds with biological activity, and methods of use” (Harbor Branch Oceanographic Institution, Inc., priority 1990, dated 1992).

Data set [1] deals with murine splenocyte suspensions (BALB/c and C57BL/6J mice). Briefly: Mixed Lymphocyte Reaction (MLR). Type of data set: cell-based. Here is the method: I. Mixed Lymphocyte Reaction
1. Murine splenocyte suspensions were prepared separately from BALB/c and C57BL/6J mice. […] The cell concentrations were adjusted to 2.5×10^6 cells/ml. Aliquots of each cell population were removed to separate tubes, and the remaining two cell suspensions combined to one tube.
(§1) 2. Serial, log10 dilutions of the pure compound were made in absolute ethanol, and 10 μl of each dilution was added to wells of microtiter test plates, and allowed to dry.
3. A volume of 0.2 ml of the combined splenocyte suspensions was added to triplicate test wells. Positive control wells received combined splenocyte suspensions in the absence of the test compounds. Negative control wells consisted of separate (not mixed) splenocyte suspensions cultured in the absence of the test compounds.
4. Plates were incubated in 5% CO2 at 37° C. for 86 hours.
5. A volume of 0.05 ml of ^3 H-thymidine (20 μCi/ml) was added to each well, and the plates were incubated in 5% CO2 at 37° C. for an additional 5 hours.
6. The contents of each well of the microtiter plates were harvested onto glass fiber filter strips, and the resulting filter discs placed in scintillation vials to which 2.0 ml of scintillation fluid was added.
7. The amount of incorporated ^3 H-thymidine was determined by counting the vials in a liquid scintillation counter.
8. Triplicate counts were averaged, and the data reported as a percentage of the positive control.

The test system of another data set is P388 cells. The experiment in a line: Antiproliferative effects against P388 cells (antitumor, MTT). Type of data set: cell-based. Here is the method: IV. Antitumor Methodology
To assess the antiproliferative effects against P388 cells, 200 μl cultures (96-well tissue culture plates, Nunc, Denmark) were established at 1×10^5 cells/ml in drug-free medium or medium containing the pure compounds/crude extracts at a final dilution or 1:500 and at various concentrations. Solvent for all dilutions was methanol, which was removed from plates under vacuum. All experimental cultures were initiated in media containing Gentamicin sulfate (50 μg/ml; Schering Corporation, Kenilworth, NJ).
To quantitate the effects of pure compounds/crude extracts on cell proliferation, 75 μl of warm growth medium containing 5 mg/ml MTT was added to each well, cultures were returned to the incubator, and were left undisturbed for 90 minutes. To spectrophotometrically quantitate formation of reduced formazan, plates were centrifuged (900×g, 5 minutes), culture fluids removed by aspiration, and 200 μl of acidified isopropanol (2 ml concentrated HCl/liter isopropanol) added per well. The absorbance of the resulting solutions were measured at 570 nm with a plate reader (MR700 Microplate Reader, Dynatech Laboratories, Chantilly, VA).

Data set [2] has as its system lymphoid cells (murine BALB/c splenocytes). Briefly: Lymphocyte Viability Assay (LCV). The data set is classed as cell-based. Here is the method: (§2) II. Lymphocyte Viability Assay
(§3) 1. Compounds were similarly tested in parallel with the MLR to determine their toxic effects on lymphoid cells using the lymphocyte viability assay (LCV).
as §1
(§4) 3. Murine splenocyte suspensions were prepared from BALB/c mice. […] The cell concentrations were adjusted to 2.5×10^6 cells/ml.
(§5) 4. A volume of 0.2 ml of the splenocyte suspension was added to replicate test wells. Positive control wells received splenocyte suspensions in the absence of the test compounds.
(§6) 5. Plates were incubated at 37° C. for 86 hours. At the end of the incubation period, a volume of 75 μl of a 2.0 mg/ml solution of MTT was added to each well, and the plates were returned to the incubator for an additional 5 hours.
(§7) 6. The supernatants from each microwell were then removed, and a volume of 200 μl of isopropanol was added and the contents mixed.
(§8) 7. Values were obtained by comparing the optical densities (determined at 570 and 650 nm) of wells containing the test compounds with those of wells containing cells and medium only (positive control). The results are expressed as a percentage of the positive control.
(§9) 8. Replicate counts were averaged, and the data reported as a percentage of the positive control. An LCV value of less than 60% of the positive control is an indication of cytotoxicity of the test compounds for lymphoid cells.

Data set [3] is described as follows: Lymphocyte Viability Assay (LCV). As to conditions: mouse, splenocytes, read-out: % LCV (percentage of positive control). The data set is classed as cell-based, murine. The method, then: as §2, §3, §1, §4, §5, §6, §7, §8, §9
Data set [4] concerns graft vs host reaction in CB6F1 mice grafted with BALB/c splenocytes. Briefly: Graft vs. Host (GVHR) in vivo activity. The conditions noted are these: for % Suppression / Stim. Index (spleen index): i.p. Here is the method:
III. Graft vs. Host (GVHR) In Vivo Activity
1. Donor mice (BALB/c) were sacrificed, spleens removed, and spleen cell suspensions prepared in tissue culture medium.
2. The above splenocyte suspension was adjusted to 10.0×10^7 cells/ml.
3. Mice were treated with varying dosages of the test compound. […] Treatment consisted of intraperitoneal injections, daily for 7 days. Dosages were calculated on a mg per kg body weight basis.
4. On day 1 of the first treatment regimen, recipient mice (CB6) were injected intraperitoneally with 0.50 ml (50.0×10^6) of the donor (BALB/c) splenocyte suspension.
5. Controls consisted of the following:
POS--mice receiving BALB/c splenocytes (Positive Control)
SYN--mice receiving CB6 splenocytes (Syngeneic Control)
CYP--mice receiving Cyclophosphamide (100 mg/kg) and BALB/c splenocytes
6. At the end of five days, recipient mice were sacrificed, weighed, and spleens removed and weighed.
7. A spleen index of 1.0 was assigned to the mean spleen weights (adjusted to body weight) of the SYN controls. The spleen index of treated mice was determined by comparing the spleen weights of those mice with that of the […]. […] As a general rule, a spleen index of less than the positive control is indicative of an immunosuppressive (ID) compound.
^a CB6F1 mice (5 mice per group) were grafted with 5 ×
10^7 BALB/c spelnocytes, i.p. on Day 0. Groups were injected, ii.p.,
with drug (or vehicle) on Days 1-6. Positive designates grafted mice
receiving vehicle alone.
^b Number of surviving mice at end of experiment.
(Stimulation Index of Syngeneic group (CB6F1 ->CB6F1) = 100

Molecules are shown by their SMILES. Converted amounts (≈) assume the structure as drawn. Where two headings read alike, the source gives them in different places.

A word on the IC50: it is the concentration that inhibits the measured activity by half. A higher IC50 goes with lower potency.

For `C#CC(O)C=CCCCCCCCCCCCCCCCCCCC` (centres unmarked) [CH3 (CH2)18 CH=CH--CHOH--C≡CH], the “% MLR (percentage of positive control)” value in data set [1] (0.05 μg/ml) is 103%; in data set [1] (0.2 μg/ml) it was 103%; in data set [1] (0.8 μg/ml), 0%; in data set [1] (3.1 μg/ml) it was 0%; in data set [1] (12.5 μg/ml), 0%; in data set [1] (50 μg/ml), 0%. Besides, the “P388 IC50” value with P388 cells (48 hour exposure) worked out at 219 µg/mL. For the same compound, the “% LCV (percentage of positive control)” value in data set [2] (0.05 μg/ml) came out at 58%; in data set [2] (0.2 μg/ml), 70%; in data set [2] (0.8 μg/ml), 61%; in data set [2] (3.1 μg/ml) it was 28%; in data set [2] (12.5 μg/ml), 30%; in data set [2] (50 μg/ml), 39%.
Turning to `C#CC(O)/C=C/CCCCCCCCCCCCCCC` (centres unmarked) [CH3 (CH2)14 CH=CH--CHOH--C≡CH], in data set [1] (Mus musculus, Splenocyte, 0.05 μg/ml, read-out: % MLR (percentage of positive control)), the activity at 0.05 µg/mL turned out to be 0%. Also, in data set [1] (Mus musculus, Splenocyte, 0.2 μg/ml, read-out: % MLR (percentage of positive control)), the activity at 0.2 µg/mL was determined as 0%. Also, in data set [1] (Mus musculus, Splenocyte, 0.8 μg/ml, read-out: % MLR (percentage of positive control)), the activity at 0.8 µg/mL amounted to 0%. In addition, in data set [1] (Mus musculus, Splenocyte, 3.1 μg/ml, read-out: % MLR (percentage of positive control)), the activity at 3.1 µg/mL came out at 0%. Besides, the activity at 12.5 µg/mL in data set [1] (Mus musculus, Splenocyte, 12.5 μg/ml, read-out: % MLR (percentage of positive control)) stood at 0%. Also, in data set [1] (Mus musculus, Splenocyte, 50 μg/ml, read-out: % MLR (percentage of positive control)), the activity at 50 µg/mL amounted to 0%. In the data set on P388 cells (Mus musculus, P388, 48 hour exposure), the IC50 is 9.4 µg/mL (≈ 32.1 µM). The viability in data set [3] (0.05 μg/ml) was 63%; in data set [3] (0.2 μg/ml) it was 42%; in data set [3] (0.8 μg/ml) it was 20%; in data set [3] (3.1 μg/ml) it was 19%; in data set [3] (12.5 μg/ml) it was 19%; in data set [3] (50 μg/ml), 11%. The “% Suppression” value in data set [4] (25.0 mg/kg) came to 45%; in data set [4] (50.0 mg/kg), 25%; in data set [4] (100 mg/kg), 0%; in data set [4] (150.0 mg/kg) it was 81%. In addition, the “Stim. Index (spleen index)” value is 1.63 ± .25 in data set [4] (25.0 mg/kg), 1.86 ± .18 in data set [4] (50.0 mg/kg), 2.35 ± .15 in data set [4] (100 mg/kg) and 1.22 ± .03 in data set [4] (150.0 mg/kg). Further, in data set [4] (mouse, in vivo), the “suppression of the GVHR (splenomegaly response), in words” value was “could mediate the suppression of the GVHR”.
